Reference: ChEMBL document CHEMBL3272178, “Prepartion of 16alpha-alkoxy and 16alpha-acyloxy derivatives of 21-chloro-17-acyloxy corticosteroids and determination of their vasoconstrictor activities in humans” (J Med Chem, 1976)
The source made the active and inactive calls. The calls are words filed in the database; no cut-off is given here.

What was measured:
Homo sapiens [1] = species: Homo sapiens; test: Vasoconstrictor activity in human relative to betamethasone valerate; format: functional, organism-based
Homo sapiens [2] = species: Homo sapiens; test: Skin stripping in human by stripped-skin assay relative to betamethasone valerate; format: functional, organism-based

CO[C@@H]1C[C@H]2[C@@H]3CCC4=CC(=O)CC[C@]4(C)[C@@]3(F)[C@@H](O)C[C@]2(C)[C@@]1(OC(C)=O)C(=O)CCl
Activity (Homo sapiens [1]): inactive | Activity (Homo sapiens [2]): inactive

CCO[C@@H]1C[C@H]2[C@@H]3CCC4=CC(=O)CC[C@]4(C)[C@@]3(F)[C@@H](O)C[C@]2(C)[C@@]1(OC(C)=O)C(=O)CCl
Activity (Homo sapiens [1]): inactive | Activity (Homo sapiens [2]): inactive

CC(=O)O[C@@H]1C[C@H]2[C@@H]3CCC4=CC(=O)C=C[C@]4(C)[C@@]3(F)[C@@H](O)C[C@]2(C)[C@@]1(OC(C)=O)C(=O)CCl
Activity (Homo sapiens [1]): inactive | Activity (Homo sapiens [2]): inactive

CCCCC(=O)O[C@]1(C(=O)CCl)[C@H](OC)C[C@H]2[C@@H]3CCC4=CC(=O)CC[C@]4(C)[C@@]3(F)[C@@H](O)C[C@@]21C
Activity (Homo sapiens [1]): inactive | Activity (Homo sapiens [2]): inactive

CCC(=O)O[C@]1(C(=O)CCl)[C@H](OC(C)=O)C[C@H]2[C@@H]3CCC4=CC(=O)C=C[C@]4(C)[C@@]3(F)[C@@H](O)C[C@@]21C
Activity (Homo sapiens [1]): inactive | Activity (Homo sapiens [2]): inactive
